Tested on: THP-1 cells stably integrating and constitutively expressing ORF9b
Experiment: Cytokine quantification (Procartaplex multiplex) in THP-1 cells expressing ORF9b
Type: cell-based
Settings: 1 µM or 5 µM
Procedure: THP-1 cells stably integrating and constitutively expressing ORF9b were generated as described under "Biochemical and biological activity (2)". Cytokines (IL-1β, IL-18, IL-10, TNF-α) were quantified by means of Procartaplex multiplex assays (InVitrogen, ThermoFisher), following instructions by the supplier. Briefly, capture beads were incubated for 2 h with cleared cell supernatants, washed and incubated with biotinylated detection antibody mix, incubated for 30 min, washed and incubated with Streptavidin-PE for 30 min, washed and data acquired on a Luminex 200 instrument. To ascertain the effect of ORF9b homodimerization inhibitors on ORF9b-mediated cytokine secretion, THP1-1 cells with the above modifications were treated with 1 µM or 5 µM of each of the compounds (final concentrations in cell culture media), and cytokine levels determined in cell culture supernatants. All determinations were performed in triplicate, and analyzed statistically significance in differences by means of a two-tailed Student's t-test. Inhibition of ORF9b-mediated secretion of cytokines was considered significant with p values ≤ 0.05.

Structure (SMILES)	ORF9b-induced release of IL-1β	ORF9b-induced release of IL-10	ORF9b-induced release of IL-18	ORF9b-induced release of TNF-α
O=C(Cc1ccc(Cl)cc1)Nc1cc([N+](=O)[O-])ccc1F [Compound 6, 2-(4-Chlorophenyl)-N-(2-fluoro-5-nitrophenyl)acetamide]	inhibited	inhibited	inhibited	–
Nc1ccc(F)c(NC(=O)Cc2ccccc2)c1 [Compound 1]	inhibited	inhibited	inhibited	–
CC(C)(O)c1coc(S(=O)(=O)NC(=O)Nc2c3c(cc4c2CCC4)CCC3)c1 [MCC950, reference compound]	abrogated	abrogated	abrogated	abrogated
Nc1ccc(F)c(NC(=O)c2cccc3ccccc23)c1 [Compound 2, N-(5-Amino-2-fluorophenyl)-1-naphthamide]	inhibited	inhibited	inhibited	–

Reference: patent EP4603477A1, “INHIBITORS OF THE CORONAVIRUS ACCESSORY PROTEIN ORF9B” (Consejo Superior De Investigaciones Científicas, priority 2024, dated 2025)
